# Laboratory results reported in ChEMBL document CHEMBL1201862, “PubChem BioAssay data set” (2004).
#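 Cultured in 96-well plates, cells were exposed to test compound for 48 hours across five concentrations. Abbreviation: GI50, concentration required for 50% inhibition of growth.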 Activity calls are given as the source filed them. No stated cut-off is given here; in the data, active = GI50 up to about 1.1 µM and inactive = higher.
# How the values were obtained:
# Experiment in all cases: NCI tumour cell line growth inhibition, 48 h
# A498 = system: A498
# RPMI-8226 = system: RPMI-8226
# SNB-75 = system: SNB-75
# SR = system: SR
# 786-0 = system: 786-0
# A549 = system: A549
# CAKI-1 = system: CAKI-1
# CCRF-CEM = system: CCRF-CEM
# COLO 205 = system: COLO 205
# DU-145 = system: DU-145
# EKVX = system: EKVX
# HCT-15 = system: HCT-15
# HL-60 = system: HL-60
# HOP-62 = system: HOP-62
# HOP-92 = system: HOP-92
# HT-29 = system: HT-29
# IGROV-1 = system: IGROV-1
# K562 = system: K562
# KM12 = system: KM12
# LOX IMVI = system: LOX IMVI
# M14 = system: M14
# MDA-MB-231 = system: MDA-MB-231
# MDA-MB-435 = system: MDA-MB-435
# MDA-N = system: MDA-N
# MOLT-4 = system: MOLT-4
# Malme-3M = system: Malme-3M
# NCI-H23 = system: NCI-H23
# OVCAR-4 = system: OVCAR-4
# OVCAR-8 = system: OVCAR-8
# PC-3 = system: PC-3
# RXF 393 = system: RXF 393
# SF-268 = system: SF-268
# SF-295 = system: SF-295
# SK-MEL-28 = system: SK-MEL-28
# SK-MEL-5 = system: SK-MEL-5
# SK-OV-3 = system: SK-OV-3
# SN12C = system: SN12C
# SW-620 = system: SW-620
# T47D = system: T47D
# TK-10 = system: TK-10
# UACC-257 = system: UACC-257
# UACC-62 = system: UACC-62
# ACHN = system: ACHN
# HCC 2998 = system: HCC 2998
# HCT-116 = system: HCT-116
# MCF7 = system: MCF7
# NCI-H460 = system: NCI-H460
# NCI-H522 = system: NCI-H522
# NCI/ADR-RES = system: NCI/ADR-RES
# OVCAR-3 = system: OVCAR-3
# OVCAR-5 = system: OVCAR-5
# SK-MEL-2 = system: SK-MEL-2
# SNB-19 = system: SNB-19
# U-251 = system: U-251
# UO-31 = system: UO-31
# NCI-H226 = system: NCI-H226
# SF-539 = system: SF-539
# Hs-578T = system: Hs-578T
structure (smiles),measurement,setting,value
CCCCCCCCCCCCCCCCCCOC[C@H](COP(=O)(O)O[C@H]1[C@H](O)[C@@H](O)[C@H](O)C[C@H]1O)OC,GI50,A498,> 100 µM (inactive)
same,GI50,RPMI-8226,22.1 µM (inactive)
same,GI50,SNB-75,19.2 µM (inactive)
same,GI50,SR,15.8 µM (inactive)
CN(C)c1n/c(=N/Cc2cccnc2)ss1,GI50,786-0,> 10 µM (inactive)
same,GI50,A549,> 10 µM (inactive)
same,GI50,CAKI-1,> 10 µM (inactive)
same,GI50,CCRF-CEM,0.597 µM (active)
same,GI50,COLO 205,> 10 µM (inactive)
same,GI50,DU-145,> 10 µM (inactive)
same,GI50,EKVX,> 10 µM (inactive)
same,GI50,HCT-15,> 10 µM
same,GI50,HL-60,3.24 µM (inactive)
same,GI50,HOP-62,> 10 µM (inactive)
same,GI50,HOP-92,> 10 µM (inactive)
same,GI50,HT-29,> 10 µM (inactive)
same,GI50,IGROV-1,> 10 µM (inactive)
same,GI50,K562,1.12 µM (active)
same,GI50,KM12,> 10 µM (inactive)
same,GI50,LOX IMVI,8.95 µM (inactive)
same,GI50,M14,> 10 µM (inactive)
same,GI50,MDA-MB-231,> 10 µM (inactive)
same,GI50,MDA-MB-435,> 10 µM (inactive)
same,GI50,MDA-N,> 10 µM (inactive)
same,GI50,MOLT-4,3.5 µM (inactive)
same,GI50,Malme-3M,> 10 µM (inactive)
same,GI50,NCI-H23,> 10 µM (inactive)
same,GI50,OVCAR-4,> 10 µM (inactive)
same,GI50,OVCAR-8,> 10 µM (inactive)
same,GI50,PC-3,> 10 µM (inactive)
same,GI50,RPMI-8226,> 10 µM (inactive)
same,GI50,RXF 393,> 10 µM (inactive)
same,GI50,SF-268,> 10 µM (inactive)
same,GI50,SF-295,> 10 µM (inactive)
same,GI50,SK-MEL-28,> 10 µM (inactive)
same,GI50,SK-MEL-5,> 10 µM (inactive)
same,GI50,SK-OV-3,> 10 µM (inactive)
same,GI50,SN12C,> 10 µM (inactive)
same,GI50,SNB-75,> 10 µM (inactive)
same,GI50,SR,2.09 µM (inactive)
same,GI50,SW-620,> 10 µM (inactive)
same,GI50,T47D,> 10 µM (inactive)
same,GI50,TK-10,> 10 µM (inactive)
same,GI50,UACC-257,> 10 µM (inactive)
same,GI50,UACC-62,> 10 µM (inactive)
O=C1CSC2=NC3=C(CSC/C3=C\c3ccc(Cl)cc3)C(c3ccc(Cl)cc3)N12 (stereo not drawn),GI50,786-0,> 10 µM (inactive)
same,GI50,A549,6.87 µM (inactive)
same,GI50,ACHN,16.9 µM (inactive)
same,GI50,CAKI-1,37.2 µM (inactive)
same,GI50,CCRF-CEM,14.6 µM (inactive)
same,GI50,COLO 205,33.1 µM (inactive)
same,GI50,DU-145,28.4 µM (inactive)
same,GI50,EKVX,27.4 µM (inactive)
same,GI50,HCC 2998,25.6 µM (inactive)
same,GI50,HCT-116,5.86 µM (inactive)
same,GI50,HCT-15,15.8 µM
same,GI50,HL-60,22.2 µM (inactive)
same,GI50,HOP-92,10.3 µM (inactive)
same,GI50,HT-29,20.2 µM (inactive)
same,GI50,IGROV-1,41.9 µM (inactive)
same,GI50,K562,21.1 µM (inactive)
same,GI50,KM12,8.04 µM (inactive)
same,GI50,LOX IMVI,12.3 µM (inactive)
same,GI50,M14,19.1 µM (inactive)
same,GI50,MCF7,19.3 µM (inactive)
same,GI50,MDA-MB-231,21.8 µM (inactive)
same,GI50,MDA-MB-435,25.1 µM (inactive)
same,GI50,MDA-N,> 10 µM (inactive)
same,GI50,MOLT-4,9.08 µM (inactive)
same,GI50,Malme-3M,40.6 µM (inactive)
same,GI50,NCI-H23,19.9 µM (inactive)
same,GI50,NCI-H460,28.5 µM (inactive)
same,GI50,NCI-H522,12.5 µM (inactive)
same,GI50,NCI/ADR-RES,24.4 µM (inactive)
same,GI50,OVCAR-3,15.5 µM (inactive)
same,GI50,OVCAR-4,4.46 µM (inactive)
same,GI50,OVCAR-5,61.2 µM (inactive)
same,GI50,OVCAR-8,8.43 µM (inactive)
same,GI50,PC-3,5.22 µM (inactive)
same,GI50,RPMI-8226,17.5 µM (inactive)
same,GI50,SF-268,41.2 µM (inactive)
same,GI50,SF-295,12.1 µM (inactive)
same,GI50,SK-MEL-28,27 µM (inactive)
same,GI50,SK-MEL-2,25.3 µM (inactive)
same,GI50,SK-MEL-5,14.4 µM (inactive)
same,GI50,SK-OV-3,52.7 µM (inactive)
same,GI50,SN12C,12.4 µM (inactive)
same,GI50,SNB-19,37.2 µM (inactive)
same,GI50,SR,14.9 µM (inactive)
same,GI50,SW-620,23.8 µM (inactive)
same,GI50,T47D,32.5 µM (inactive)
same,GI50,TK-10,32 µM (inactive)
same,GI50,U-251,> 10 µM (inactive)
same,GI50,UACC-257,28.2 µM (inactive)
same,GI50,UACC-62,24.9 µM (inactive)
same,GI50,UO-31,12.9 µM (inactive)
CCN(CC)CCCNc1nc(=O)[nH]c(C)c1C(=O)Nc1ccc2c(c1)c1ccccc1n2CC,GI50,786-0,> 100 µM (inactive)
same,GI50,A549,> 100 µM (inactive)
same,GI50,ACHN,> 100 µM (inactive)
same,GI50,CAKI-1,> 100 µM (inactive)
same,GI50,CCRF-CEM,> 100 µM (inactive)
same,GI50,COLO 205,> 100 µM (inactive)
same,GI50,DU-145,> 100 µM (inactive)
same,GI50,EKVX,> 100 µM (inactive)
same,GI50,HCC 2998,> 100 µM (inactive)
same,GI50,HCT-116,> 100 µM (inactive)
same,GI50,HCT-15,> 100 µM
same,GI50,HL-60,> 100 µM (inactive)
same,GI50,HOP-62,> 100 µM (inactive)
same,GI50,HOP-92,> 100 µM (inactive)
same,GI50,HT-29,> 100 µM (inactive)
same,GI50,IGROV-1,> 100 µM (inactive)
same,GI50,K562,> 100 µM (inactive)
same,GI50,KM12,> 100 µM (inactive)
same,GI50,LOX IMVI,> 100 µM (inactive)
same,GI50,M14,> 100 µM (inactive)
same,GI50,MCF7,> 100 µM (inactive)
same,GI50,MDA-MB-231,> 100 µM (inactive)
same,GI50,MDA-MB-435,> 100 µM (inactive)
same,GI50,MDA-N,> 100 µM (inactive)
same,GI50,MOLT-4,> 100 µM (inactive)
same,GI50,Malme-3M,> 100 µM (inactive)
same,GI50,NCI-H226,> 100 µM (inactive)
same,GI50,NCI-H23,> 100 µM (inactive)
same,GI50,NCI-H522,> 100 µM (inactive)
same,GI50,NCI/ADR-RES,> 100 µM (inactive)
same,GI50,OVCAR-3,> 100 µM (inactive)
same,GI50,OVCAR-4,> 100 µM (inactive)
same,GI50,OVCAR-5,> 100 µM (inactive)
same,GI50,OVCAR-8,> 100 µM (inactive)
same,GI50,PC-3,> 100 µM (inactive)
same,GI50,RPMI-8226,> 100 µM (inactive)
same,GI50,RXF 393,> 100 µM (inactive)
same,GI50,SF-295,> 100 µM (inactive)
same,GI50,SF-539,> 100 µM (inactive)
same,GI50,SK-MEL-28,> 100 µM (inactive)
same,GI50,SK-MEL-2,> 100 µM (inactive)
same,GI50,SK-MEL-5,> 100 µM (inactive)
same,GI50,SK-OV-3,> 100 µM (inactive)
same,GI50,SN12C,> 100 µM (inactive)
same,GI50,SNB-19,> 100 µM (inactive)
same,GI50,SNB-75,> 100 µM (inactive)
same,GI50,SW-620,> 100 µM (inactive)
same,GI50,T47D,> 100 µM (inactive)
same,GI50,TK-10,> 100 µM (inactive)
same,GI50,U-251,> 100 µM (inactive)
same,GI50,UACC-257,> 100 µM (inactive)
same,GI50,UACC-62,> 100 µM (inactive)
same,GI50,UO-31,> 100 µM (inactive)
Nc1ncnc2c1nc(Cl)n2C1OC2COP(=O)(O)OC2C1O (stereo not drawn),GI50,786-0,5.04 µM (inactive)
same,GI50,A498,1.69 µM (inactive)
same,GI50,A549,23.3 µM (inactive)
same,GI50,ACHN,4.99 µM (inactive)
same,GI50,CAKI-1,6.04 µM (inactive)
same,GI50,CCRF-CEM,1.29 µM (inactive)
same,GI50,COLO 205,5.55 µM (inactive)
same,GI50,DU-145,6.67 µM (inactive)
same,GI50,EKVX,22.4 µM (inactive)
same,GI50,HCC 2998,38.9 µM (inactive)
same,GI50,HCT-116,3.09 µM (inactive)
same,GI50,HCT-15,3.76 µM
same,GI50,HL-60,1.23 µM (inactive)
same,GI50,HT-29,4.57 µM (inactive)
same,GI50,Hs-578T,19.6 µM (inactive)
same,GI50,IGROV-1,11 µM (inactive)
same,GI50,K562,1.01 µM (active)
same,GI50,KM12,41.6 µM (inactive)
same,GI50,LOX IMVI,1.19 µM (inactive)
same,GI50,M14,6.25 µM (inactive)
same,GI50,MCF7,3.49 µM (inactive)
same,GI50,MDA-MB-435,7.82 µM (inactive)
same,GI50,MDA-N,6.43 µM (inactive)
same,GI50,MOLT-4,2.81 µM (inactive)
same,GI50,Malme-3M,37 µM (inactive)
same,GI50,NCI-H226,3.41 µM (inactive)
same,GI50,NCI-H23,7.24 µM (inactive)
same,GI50,NCI-H460,4 µM (inactive)
same,GI50,NCI-H522,3.63 µM (inactive)
same,GI50,NCI/ADR-RES,8.39 µM (inactive)
same,GI50,OVCAR-3,12.2 µM (inactive)
same,GI50,OVCAR-4,24.2 µM (inactive)
same,GI50,OVCAR-5,23.3 µM (inactive)
same,GI50,OVCAR-8,3.9 µM (inactive)
same,GI50,RPMI-8226,5.53 µM (inactive)
same,GI50,RXF 393,3.15 µM (inactive)
same,GI50,SF-268,> 51.8 µM (inactive)
same,GI50,SF-295,> 35.4 µM (inactive)
same,GI50,SF-539,26.8 µM (inactive)
same,GI50,SK-MEL-28,> 87.9 µM (inactive)
same,GI50,SK-MEL-2,> 100 µM (inactive)
same,GI50,SK-MEL-5,> 47.4 µM (inactive)
same,GI50,SK-OV-3,3.01 µM (inactive)
same,GI50,SN12C,12 µM (inactive)
same,GI50,SNB-19,> 100 µM (inactive)
same,GI50,SNB-75,11.3 µM (inactive)
same,GI50,SR,3.55 µM (inactive)
same,GI50,SW-620,3.47 µM (inactive)
same,GI50,T47D,2.38 µM (inactive)
same,GI50,TK-10,6.49 µM (inactive)
same,GI50,U-251,50.6 µM (inactive)
same,GI50,UACC-257,18.9 µM (inactive)
same,GI50,UACC-62,10.4 µM (inactive)
same,GI50,UO-31,5.87 µM (inactive)
